One block for each compound: values may come before it.
Assay: photoluminescence quantum yield (fraction); solvent given as SMILES
[1] = in O=P(c1ccccc1)(c1ccccc1)c1ccccc1Oc1ccccc1P(=O)(c1ccccc1)c1ccccc1

Compound: c1ccc(-c2nc(-c3ccccc3)nc(-c3cc(-n4c5ccccc5c5ccccc54)c(-n4c5ccccc5c5ccccc54)c(-n4c5ccccc5c5ccccc54)c3)n2)cc1
photoluminescence quantum yield (in O=P(c1ccccc1)(c1ccccc1)c1ccc2oc3ccc(P(=O)(c4ccccc4)c4ccccc4)cc3c2c1): 0.82
photoluminescence quantum yield [1]: 1

Compound: CCCCCCc1ccc(-n2c3c4cccc(OC)c4nc(-c4ccc(C#N)cc4)c3c3c2c2c(-c4ccc(C#N)cc4)nc4c(OC)cccc4c2n3-c2ccc(CCCCCC)cc2)cc1
photoluminescence quantum yield (in ClC(Cl)Cl): 0.13

Compound: COC(=O)C12N=N[C@](C(=O)OC)(C3C4CCC(C4)C31)C1[C@@H]3CC[C@@H](C3)[C@H]12 (some centres not stated)
photoluminescence quantum yield (in CC#N): 0.09

Compound: CCOC(CN1C(=O)C2=C(c3ccc(OC)c(OC)c3)N(CC(OCC)OCC)C(=O)C2=C1c1ccc(OC)c(OC)c1)OCC
photoluminescence quantum yield (in ClC(Cl)Cl): 0.9

Compound: CC(C)[Si](C#Cc1ccc(C#C[Si](C(C)C)(C(C)C)C(C)C)c2nc3c(nc12)Cc1ccccc1-3)(C(C)C)C(C)C
photoluminescence quantum yield (in CCCCCC): 0.04

Compound: COCCOCCOCCOCC(COCCOCCOCCOC)Oc1cc(/C=C/c2ccc(/C=C(\C#N)c3ccc(C(F)(F)F)cc3)cc2)c(OC(COCCOCCOCCOC)COCCOCCOCCOC)cc1/C=C/c1ccc(/C=C(\C#N)c2ccc(C(F)(F)F)cc2)cc1
photoluminescence quantum yield (in ClCCl): 0.55

Compound: CC(C)(C)c1cc2c(c(C(C)(C)C)c1)O[B-](F)(F)[n+]1c-2nc(-c2ccccc2)c2ccccc21
photoluminescence quantum yield (in Cc1ccccc1): 0.002

Compound: CN(C)c1ccc(C(=O)Nc2cccc(Cl)c2)cc1
photoluminescence quantum yield (in C1CCCCC1): 0.0031
photoluminescence quantum yield (in C1CCOC1): 0.0263
photoluminescence quantum yield (in CC#N): 0.0319
photoluminescence quantum yield (in CCOCC): 0.0103

Compound: FC(F)(F)C(F)(F)C(F)(F)C(F)(F)C(F)(F)C(F)(F)CCOc1nnc(Cl)nn1
photoluminescence quantum yield (in ClCCl): 0.4
photoluminescence quantum yield (in OCC(F)(F)F): 0.26

Compound: N#Cc1cc2ccc(cc2)c2cccc3cccc(c4ccc(cc4)cc(C#N)c4ccc(cc4)c4cccc5cccc(c6ccc1cc6)c54)c32
photoluminescence quantum yield (in Cc1ccccc1): 0.55

Compound: Cc1ccccc1
photoluminescence quantum yield (in C1CCCCC1): 0.22

Compound: COc1cc(N(c2ccc(C=C(C#N)C#N)c(OC)c2)c2ccc(C=C(C#N)C#N)c(OC)c2)ccc1C=C(C#N)C#N
photoluminescence quantum yield (in C1COCCO1): 0.025
photoluminescence quantum yield (in CC#N): 0.047
photoluminescence quantum yield (in CC(C)=O): 0.074
photoluminescence quantum yield (in CCOC(C)=O): 0.166
photoluminescence quantum yield (in CN(C)C=O): 0.026
photoluminescence quantum yield (in CO): 0.043
photoluminescence quantum yield (in Cc1ccccc1): 0.018
photoluminescence quantum yield (in ClC(Cl)Cl): 0.025
photoluminescence quantum yield (in ClCCl): 0.028

Compound: CC1(C)C(/C=C/C2=C(Oc3ccc(CCN=C=S)cc3F)C(=C/C=C3/N(CCCS(=O)(=O)[O-])c4ccccc4C3(C)C)/CCC2)=[N+](CCCS(=O)(=O)[O-])c2ccccc21
photoluminescence quantum yield (in CO): 0.14

Compound: [NH3+]C(Cc1ccc(O)cc1)C(=O)[O-] (configuration not stated)
photoluminescence quantum yield (in O): 0.13

Compound: CCC1=C(C)C2=Cc3c4ccccc4c4n3[B-](c3ccc5cc6ccccc6cc5c3)(Oc3ccccc3-4)[N+]2=C1C (configuration not stated)
photoluminescence quantum yield (in CC#N): 0.66
photoluminescence quantum yield (in CCCCCC): 0.75
photoluminescence quantum yield (in Cc1ccccc1): 0.68
photoluminescence quantum yield (in ClCCl): 0.76

Compound: Cc1ccc(C2=C3C=C(I)C(I)=[N+]3[B-](F)(F)n3c2cc(I)c3I)cc1
photoluminescence quantum yield (in C1CCCCC1): 0.099
photoluminescence quantum yield (in CC#N): 0.058
photoluminescence quantum yield (in CCO): 0.067
photoluminescence quantum yield (in CCOC(C)=O): 0.073
photoluminescence quantum yield (in CO): 0.061
photoluminescence quantum yield (in OCC(F)(F)F): 0.059

Compound: CCN(CC)c1ccc2cc(-c3nc4cc(C(=O)Nc5ccc(C)cc5[N+](=O)[O-])ccc4o3)c(=O)oc2c1
photoluminescence quantum yield (in ClCCl): 0.43

Compound: CC(C)[Si](C#Cc1c2nsnc2c(C#C[Si](C(C)C)(C(C)C)C(C)C)c2nc3c(nc12)C1c2ccccc2C3c2ccccc21)(C(C)C)C(C)C
photoluminescence quantum yield (in CCCCCC): 0.66

Compound: CC(C)(C)c1ccc2c(c1)c1cc(C(C)(C)C)ccc1n2-c1cccc(-c2nc(-c3cccc(-n4c5ccc(C(C)(C)C)cc5c5cc(C(C)(C)C)ccc54)c3)nc(-c3cccc(P(=O)(c4ccccc4)c4ccccc4)c3)n2)c1
photoluminescence quantum yield [1]: 0.55

Compound: CSc1ccc2c(c1)N(CCCN(C)C)c1ccccc1S2
photoluminescence quantum yield (in CC#N): 0.003
photoluminescence quantum yield (in CO): 0.003
photoluminescence quantum yield (in O): 0.003

Compound: CCCCN1C(=O)c2c(Br)c(Br)c3c4c(Br)c(Br)c5c6c(c(Br)c(Br)c(c7c(Br)c(Br)c(c2c37)C1=O)c64)C(=O)N(CCCC)C5=O
photoluminescence quantum yield (in ClC(Cl)Cl): 0.01

Compound: O=C(c1ccc(-n2c3ccc(-c4ccccc4)cc3c3cc(-c4ccccc4)ccc32)cc1)c1ccc(-n2c3ccc(-c4ccccc4)cc3c3cc(-c4ccccc4)ccc32)cc1
photoluminescence quantum yield (in Cc1ccccc1): 0.153

Compound: COc1ccc(O)c(-c2nc(C)c3n2CCCC3)c1
photoluminescence quantum yield (in ClCCl): 0.11

Compound: CN(C)c1ccc(C(=O)Nc2ccc(Cl)cc2)cc1
photoluminescence quantum yield (in C1CCCCC1): 0.0011
photoluminescence quantum yield (in C1CCOC1): 0.0101
photoluminescence quantum yield (in CC#N): 0.0171
photoluminescence quantum yield (in CCOCC): 0.005

Compound: CC1=CC(C)=[N+]2C1=Cc1c(C)c(C3=C(C)C4=Cc5c(C)cc(C)n5[B-](F)(F)[N+]4=C3C)c(C)n1[B-]2(F)F
photoluminescence quantum yield (in ClCCl): 0.66

Next, values leading:

photoluminescence quantum yield (in C1CCCCC1): 0.89
photoluminescence quantum yield (in CC#N): 0.92
photoluminescence quantum yield (in CC(C)O): 0.91
photoluminescence quantum yield (in CO): 0.76
photoluminescence quantum yield (in CS(C)=O): 0.99
photoluminescence quantum yield (in ClC(Cl)Cl): 0.98
photoluminescence quantum yield (in c1ccccc1): 0.92
Compound: CN(C)c1ccc2nc(-c3ccc(C(=O)Nc4ccccc4)cc3)sc2c1

photoluminescence quantum yield (in ClCCl): 0.73
Compound: C(=C\c1ccncn1)/c1ccc(N(c2ccccc2)c2ccc(/C=C/c3ccncn3)cc2)cc1

photoluminescence quantum yield (in ClCCl): 0.35
Compound: Cc1cc(C)c(C2=C3C=C(/C=C/C(=O)OCc4ccccc4)C=[N+]3[B-](F)(F)n3cc(/C=C/C(=O)OCc4ccccc4)cc32)c(C)c1

photoluminescence quantum yield (in CO): 0.6
Compound: COc1ccc(-c2nc(-c3ccc(C#N)cc3)[nH]c2-c2ccc(OC)cc2)cc1

photoluminescence quantum yield (in ClCCl): 0
Compound: CN(C)c1ccc(C#CC2=C3CCc4ccccc4C3=[O+][B-](F)(F)O2)cc1

photoluminescence quantum yield (in C1CCCCC1): 0.65
photoluminescence quantum yield (in C1CCOC1): 0.73
photoluminescence quantum yield (in CC#N): 0.58
photoluminescence quantum yield (in ClC(Cl)Cl): 0.8
photoluminescence quantum yield (in c1ccccc1): 0.89
Compound: Cc1cc(C)c(B(c2c(C)cc(C)cc2C)c2cc3ccc4ccccc4c3c3c2ccc2ccccc23)c(C)c1

photoluminescence quantum yield (in O): 0.71
Compound: CCn1c(-c2ccc(-c3ccc(-c4ccc(-c5n(CC)c6ccccc6[n+]5CC)cc4)c(C)c3)cc2)[n+](CC)c2ccccc21

photoluminescence quantum yield (in CC#N): 0.018
Compound: CC1[C@@H]2[C@@H]1[C@]1(c3ccccc3)N=NC2(c2ccccc2)C2C3C=CC(C3)C21 (some centres not stated)

photoluminescence quantum yield (in C1COCCO1): 0.466
photoluminescence quantum yield (in CC#N): 0.048
photoluminescence quantum yield (in CCO): 0.073
photoluminescence quantum yield (in CCOC(C)=O): 0.186
photoluminescence quantum yield (in O): 0.0069
Compound: CN1C(=O)/C(=C/c2ccncc2)N=C1c1ccccc1

photoluminescence quantum yield (in C1CCOC1): 0.0003
photoluminescence quantum yield (in CCCCCC): 0.335
photoluminescence quantum yield (in c1ccccc1): 0.0162
Compound: O=C1OC(=O)c2ccc(N(c3ccccc3)c3ccc4ccccc4c3)c3cccc1c23

photoluminescence quantum yield (in C1COCCO1): 0.51
photoluminescence quantum yield (in CC#N): 0.43
photoluminescence quantum yield (in CCCCOCCCC): 0.46
photoluminescence quantum yield (in CCOC(C)=O): 0.47
Compound: COc1nc(Nc2ccc3c4cccc5cccc(c6cccc2c63)c54)nc(OC)n1

photoluminescence quantum yield (in C1CCOC1): 0.031
photoluminescence quantum yield (in CCCCCC): 0.895
photoluminescence quantum yield (in ClC(Cl)Cl): 0.204
photoluminescence quantum yield (in ClCCl): 0.029
Compound: CN1C(=O)c2cccc3c(-n4c5ccccc5c5ccccc54)ccc(c23)C1=O

photoluminescence quantum yield (in ClCCl): 0.75
Compound: CCN(CC)c1ccc2cc(-c3ccc(-c4ccc(-c5cc6ccc(N(CC)CC)cc6oc5=O)cc4)cc3)c(=O)oc2c1

photoluminescence quantum yield (in ClC(Cl)Cl): 0.023
Compound: CCc1ccc(-n2c3ccccc3c3cc4c(cc32)c2ccccc2n4-c2ccc(CC)s2)s1

photoluminescence quantum yield (in C1CCCCC1): 0.42
photoluminescence quantum yield (in C1COCCO1): 0.47
photoluminescence quantum yield (in CC#N): 1
photoluminescence quantum yield (in CC(C)O): 1
photoluminescence quantum yield (in CCCCCC): 0.27
photoluminescence quantum yield (in CO): 1
photoluminescence quantum yield (in ClC(Cl)Cl): 0.53
photoluminescence quantum yield (in c1ccccc1): 0.52
Compound: CC1(C)Cc2c(c3ccccc3c3nc4c5c(c6ccccc6c4nc23)OC(C)(C)C5)O1

photoluminescence quantum yield (in ClCCl): 0.71
Compound: O=P1(c2ccccc2)c2ccccc2-c2sc3ccccc3c21 (configuration not stated)

photoluminescence quantum yield (in ClC(Cl)Cl): 0.1
Compound: Cc1cc(=O)oc2cc3c(cc12)c1c2ccccc2c2ccccc2c1c1c2ccccc2c2ccccc2c31

photoluminescence quantum yield (in ClCCl): 0.41
Compound: N#Cc1cc(/C=C/c2ccc(N(c3ccccc3)c3ccccc3)cc2)ccc1/C=C/c1ccc(/C=C/c2ccc(N(c3ccccc3)c3ccccc3)cc2)cc1C#N

photoluminescence quantum yield (in ClC(Cl)Cl): 0.5
Compound: CCCN1c2ccccc2Sc2cc(/C=C\c3cc(=O)oc4ccccc34)ccc21

photoluminescence quantum yield (in O): 0.25
Compound: N#Cc1c(N2CCCC2)cc(-c2ccccc2)c2c1-c1cccc3cccc-2c13

photoluminescence quantum yield (in CCCCCC): 0.89
photoluminescence quantum yield (in CCCCCCCCO): 0.88
photoluminescence quantum yield (in CCOC(C)=O): 0.84
photoluminescence quantum yield (in CN(C)C=O): 0.6
photoluminescence quantum yield (in ClCCl): 0.89
Compound: CC1=CC(C)=[N+]2C1=Cc1c3ccccc3c(C#Cc3ccccc3)n1[B-]2(F)F

photoluminescence quantum yield (in CO): 0.06
Compound: COc1ccc(-c2nc(-c3cccc(C#N)c3)[nH]c2-c2ccc(OC)cc2)cc1

photoluminescence quantum yield (in CCOC(C)=O): 0.45
Compound: CCn1c2ccccc2c2c(C#N)c3c(ccc4c3cnn4C)nc21

photoluminescence quantum yield (in ClCCl): 0.04
Compound: CCN(CC)c1ccc2c(-c3ccccc3C(=O)O)c3c([o+]c2c1)/C(=C/c1ccc(N(C)C)cc1)CCC3

photoluminescence quantum yield (in ClCCl): 0.282
Compound: COC(=O)c1[nH]c(-c2ccc(OC)cc2)c2nnc3ccc(OC)cc3c12

photoluminescence quantum yield (in ClCCl): 0.9
Compound: C[Si]1(C)c2cc(-c3ccccc3)ccc2C=Cc2ccc(-c3ccccc3)cc21

photoluminescence quantum yield (in ClC(Cl)Cl): 0.14
Compound: CCc1cc(CC)cc(-n2c3ccccc3c3cc4c(cc32)c2ccccc2n4-c2cc(CC)cc(CC)c2)c1

photoluminescence quantum yield (in C1CCCCC1): 0.62
Compound: c1ccc(-c2ccc(-c3ccc4c(c3)CCCO4)cc2)cc1

photoluminescence quantum yield (in ClCCl): 0.8
Compound: C(=C\c1cc(-c2ccccc2)c(/C=C/c2ccc(N(c3ccccc3)c3ccccc3)cc2)cc1-c1ccccc1)/c1ccc(N(c2ccccc2)c2ccccc2)cc1

photoluminescence quantum yield (in ClCCl): 0.143
Compound: C(S/C=C/c1ccc(-c2ccc(/C=C/SC=C(c3ccccc3)c3ccccc3)cc2)cc1)=C(c1ccccc1)c1ccccc1

photoluminescence quantum yield (in ClC(Cl)Cl): 0.53
photoluminescence quantum yield (in ClCCl): 0.57
Compound: F[B-]1(F)OC(c2ccccc2)=Cc2ccc3ccccc3[n+]21

photoluminescence quantum yield (in CC#N): 0.045
Compound: Cc1ccc(-c2ccc(/C=C/c3ccc([N+](=O)[O-])cc3)cn2)nc1
